{"source": "patent US20200054671A1", "about": "“TREATMENT OF ANXIETY DISORDER AND AUGMENTATION OF ANTI-ANXIETY INTERVENTIONS BY ADMINISTRATION OF NOBLE GAS CONTAINING MIXTURES” (NOBILIS THERAPEUTICS, INC., priority 2016, published 2020)", "system": "patients with panic disorder", "assay": "Clinical Global Impression Scale, improvement subscale (CGI-I)", "type": "in vivo, human", "description": "This investigator-initiated study was performed under a prospective clinical trial protocol approved by the Institute of Mental Health and Addictology, which is accredited by the Ministry of Health of the Russian Federation to conduct clinical trials (#57689). Study conduct was in compliance with all ethical standards and good clinical practice. Ninety outpatients with a diagnosis of “panic disorder» (F41.0) according to ICD-10 were enrolled through the Institute of Mental Health and Addictology. Five patients dropped out of the study due to minor side effects, predominantly lightheadedness and headaches, and 4 patients dropped out of the study for unspecified reasons. As the intention to treat analysis was not utilized due to the open label design of the study, 81 patients with PD (49 women and 32 men), mean age was 35.2 years (range […]) were studied. Patients were randomized into 2 groups: with “pure” PD (group 1) and “comorbid” PD, when it was co-diagnosed with other mental illnesses (group 2). All patients with isolated PD (Group 1, n=42) received monotherapy with xenon at the aforementioned schedule, while the majority of patients (94.9%) with PD and comorbid conditions, which were predominantly depression (group 2, n=39), in addition to xenon administration continued treatment for comorbid psychiatric disorders, which mainly consisted of antidepressants (SSRIs and SNRIs). In these patients, the reason for xenon treatment was the increase in the frequency and severity of panic attacks despite ongoing treatment with stable pharmacotherapy of at least 3 to 6 months' duration.\nAdministration of xenon was performed through inhalation of xenon-oxygen mixtures that were escalated from 15%/85% to 30%/70% with titration increments of 5% per session. Each patient in the study underwent between 6 and 7 treatments with xenon-oxygen mixture. The first three sessions were carried out daily and from session 4 onward—every other day. The selected dosing regime and the composition of the gas mixtures were based on the historical evidence of safety of subanesthetic use of xenon in imaging.\nMedical grade xenon (“medksenon»®, 99.9999%, manufacturer: Atommedcenter, Moscow, Russia) and medical grade oxygen in separate containers were admixed. Mixing and administration of gases in preset concentration and volume was accomplished with the use of the medical device MAGi-AMTS1, which enables the operator to adjust the concentration of xenon in the gas mixture, and which contains the electronic flow meter with a software module that allows for such adjustments. Administration of xenon-oxygen mixture to the patient was carried out via a face mask. Patients were asked to slowly inhale, holding breath for 5 to 10 seconds; exhale into the loop and after 35-40 seconds exhale outside the contour and breath in the new portion of gas mixture. Xenon inhalation lasted from 2.5 to 4 minutes, and the xenon consumption was capped at 3.0 liters per procedure. The patients were assessed subjectively by the provider, while the vital signs (pulse, blood pressure, oxygen saturation) were continuously monitored.\nPatients were evaluated after each xenon inhalation and at 30 and 180 days after completion of treatment. To this end, we employed clinical psychopathological and clinical catamnestic methods, and psychometric scales that are widely used internationally to assess the treatment of mental disorders. Scale Assessment, Zung Self-Rating Anxiety Scale (SAS) was performed prior to starting therapy (V1), and at 1 and 6 months after treatment. According to this scale, SAS index of less than 45 points corresponds to the normal value, 45-59—to mild-to-moderate degree of anxiety, 60-74—to high degree of anxiety, more than 75—to an extremely high-level of anxiety. […]"}
{"smiles": "[Xe]", "note": "[xenon]", "values": [{"measurement": "CGI-I, V2: Marked deterioration, share of patients", "setting": "Total (n = 81)", "value": 1.2, "unit": "%"}, {"measurement": "CGI-I, V2: Marked improvement, share of patients", "setting": "Total (n = 81)", "value": 12.3, "unit": "%"}, {"measurement": "CGI-I, V2: Minimal deterioration, share of patients", "setting": "Total (n = 81)", "value": 1.2, "unit": "%"}, {"measurement": "CGI-I, V2: Minimal improvement, share of patients", "setting": "Total (n = 81)", "value": 54.3, "unit": "%"}, {"measurement": "CGI-I, V2: No changes, share of patients", "setting": "Total (n = 81)", "value": 30.9, "unit": "%"}, {"measurement": "CGI-I, V3: Marked improvement, share of patients", "setting": "Total (n = 81)", "value": 25.9, "unit": "%"}, {"measurement": "CGI-I, V3: Minimal improvement, share of patients", "setting": "Total (n = 81)", "value": 61.7, "unit": "%"}, {"measurement": "CGI-I, V3: No changes, share of patients", "setting": "Total (n = 81)", "value": 12.3, "unit": "%"}, {"measurement": "CGI-I, V4: Marked improvement, share of patients", "setting": "Total (n = 81)", "value": 54.3, "unit": "%"}, {"measurement": "CGI-I, V4: Minimal improvement, share of patients", "setting": "Total (n = 81)", "value": 40.7, "unit": "%"}, {"measurement": "CGI-I, V4: No changes, share of patients", "setting": "Total (n = 81)", "value": 4.9, "unit": "%"}, {"measurement": "CGI-I, V5: Marked improvement, share of patients", "setting": "Total (n = 81)", "value": 79.0, "unit": "%"}, {"measurement": "CGI-I, V5: Minimal improvement, share of patients", "setting": "Total (n = 81)", "value": 18.5, "unit": "%"}, {"measurement": "CGI-I, V5: Very marked improvement, share of patients", "setting": "Total (n = 81)", "value": 2.5, "unit": "%"}, {"measurement": "CGI-I, V6: Marked improvement, share of patients", "setting": "Total (n = 81)", "value": 66.7, "unit": "%"}, {"measurement": "CGI-I, V6: Very marked improvement, share of patients", "setting": "Total (n = 81)", "value": 33.3, "unit": "%"}, {"measurement": "CGI-I, V2: Marked deterioration, share of patients", "setting": "«Comorbid PD» (n = 39)", "value": ".0%"}, {"measurement": "CGI-I, V2: Marked improvement, share of patients", "setting": "«Comorbid PD» (n = 39)", "value": 12.8, "unit": "%"}, {"measurement": "CGI-I, V2: Minimal deterioration, share of patients", "setting": "«Comorbid PD» (n = 39)", "value": ".0%"}, {"measurement": "CGI-I, V2: Minimal improvement, share of patients", "setting": "«Comorbid PD» (n = 39)", "value": 61.5, "unit": "%"}, {"measurement": "CGI-I, V2: No changes, share of patients", "setting": "«Comorbid PD» (n = 39)", "value": 25.6, "unit": "%"}, {"measurement": "CGI-I, V3: Minimal improvement, share of patients", "setting": "«Comorbid PD» (n = 39)", "value": 69.2, "unit": "%"}, {"measurement": "CGI-I, V3: No changes, share of patients", "setting": "«Comorbid PD» (n = 39)", "value": 20.5, "unit": "%"}, {"measurement": "CGI-I, V4: Marked improvement, share of patients", "setting": "«Comorbid PD» (n = 39)", "value": 25.6, "unit": "%"}, {"measurement": "CGI-I, V4: Minimal improvement, share of patients", "setting": "«Comorbid PD» (n = 39)", "value": 64.1, "unit": "%"}, {"measurement": "CGI-I, V4: No changes, share of patients", "setting": "«Comorbid PD» (n = 39)", "value": 10.3, "unit": "%"}, {"measurement": "CGI-I, V5: Marked improvement, share of patients", "setting": "«Comorbid PD» (n = 39)", "value": 61.5, "unit": "%"}, {"measurement": "CGI-I, V5: Minimal improvement, share of patients", "setting": "«Comorbid PD» (n = 39)", "value": 38.5, "unit": "%"}, {"measurement": "CGI-I, V5: Very marked improvement, share of patients", "setting": "«Comorbid PD» (n = 39)", "value": ".0%"}, {"measurement": "CGI-I, V6: Marked improvement, share of patients", "setting": "«Comorbid PD» (n = 39)", "value": 87.2, "unit": "%"}, {"measurement": "CGI-I, V6: Very marked improvement, share of patients", "setting": "«Comorbid PD» (n = 39), after 6 treatments", "value": 12.8, "unit": "%"}, {"measurement": "CGI-I, V3: Marked improvement, share of patients", "setting": "«Comorbid PD» (n = 39), after the third treatment", "value": 10.3, "unit": "%"}, {"measurement": "CGI-I, V2: Marked deterioration, share of patients", "setting": "«Pure PD» (n = 42)", "value": 2.4, "unit": "%"}, {"measurement": "CGI-I, V2: Marked improvement, share of patients", "setting": "«Pure PD» (n = 42)", "value": 11.9, "unit": "%"}, {"measurement": "CGI-I, V2: Minimal deterioration, share of patients", "setting": "«Pure PD» (n = 42)", "value": 2.4, "unit": "%"}, {"measurement": "CGI-I, V2: Minimal improvement, share of patients", "setting": "«Pure PD» (n = 42)", "value": 47.6, "unit": "%"}, {"measurement": "CGI-I, V2: No changes, share of patients", "setting": "«Pure PD» (n = 42)", "value": 35.7, "unit": "%"}, {"measurement": "CGI-I, V3: Minimal improvement, share of patients", "setting": "«Pure PD» (n = 42)", "value": 54.8, "unit": "%"}, {"measurement": "CGI-I, V3: No changes, share of patients", "setting": "«Pure PD» (n = 42)", "value": 4.8, "unit": "%"}, {"measurement": "CGI-I, V4: Marked improvement, share of patients", "setting": "«Pure PD» (n = 42)", "value": 81.0, "unit": "%"}, {"measurement": "CGI-I, V4: Minimal improvement, share of patients", "setting": "«Pure PD» (n = 42)", "value": 19.0, "unit": "%"}, {"measurement": "CGI-I, V4: No changes, share of patients", "setting": "«Pure PD» (n = 42)", "value": ".0%"}, {"measurement": "CGI-I, V5: Marked improvement, share of patients", "setting": "«Pure PD» (n = 42)", "value": 95.2, "unit": "%"}, {"measurement": "CGI-I, V5: Minimal improvement, share of patients", "setting": "«Pure PD» (n = 42)", "value": ".0%"}, {"measurement": "CGI-I, V5: Very marked improvement, share of patients", "setting": "«Pure PD» (n = 42)", "value": 4.8, "unit": "%"}, {"measurement": "CGI-I, V6: Marked improvement, share of patients", "setting": "«Pure PD» (n = 42)", "value": 47.6, "unit": "%"}, {"measurement": "CGI-I, V6: Very marked improvement, share of patients", "setting": "«Pure PD» (n = 42), after 6 treatments", "value": 52.4, "unit": "%"}, {"measurement": "CGI-I, V3: Marked improvement, share of patients", "setting": "«Pure PD» (n = 42), after the third treatment", "value": 40.5, "unit": "%"}]}
